Measurements: EPA's aquatic toxicity sets

What was measured:
Pimephales promelas = test: 96 h LC50 (-log10 mol/L); higher = more toxic
Tetrahymena pyriformis = test: 48 h IGC50 (-log10 mol/L); higher = more toxic

With `Nc1ccc(Cl)c(Cl)c1` the “96 h LC50 (-log10 mol/L)” value (Pimephales promelas) was 4.32 and the “48 h IGC50 (-log10 mol/L)” value (Tetrahymena pyriformis) was 4.37.

For `CC(C)C(O)C(C)C`, the “96 h LC50 (-log10 mol/L)” value (Pimephales promelas) was 2.85 and the “48 h IGC50 (-log10 mol/L)” value (Tetrahymena pyriformis) was 2.29.

For `COC(=O)c1cc(Cl)ccc1Cl`, the “96 h LC50 (-log10 mol/L)” value (Pimephales promelas) was 4.17 and the “48 h IGC50 (-log10 mol/L)” value (Tetrahymena pyriformis) was 3.81.

For `NC(=O)c1ccccc1N`, the “96 h LC50 (-log10 mol/L)” value (Pimephales promelas) was 2.54 and the “48 h IGC50 (-log10 mol/L)” value (Tetrahymena pyriformis) was 2.13.

For `Brc1nc(Br)c(Br)[nH]1`, the “96 h LC50 (-log10 mol/L)” value (Pimephales promelas) was 4.7 and the “48 h IGC50 (-log10 mol/L)” value (Tetrahymena pyriformis) was 4.43.

`CC(C)(O)CCc1ccccc1` was tested, and the “96 h LC50 (-log10 mol/L)” value (Pimephales promelas) was 3.39 and the “48 h IGC50 (-log10 mol/L)” value (Tetrahymena pyriformis) was 2.93.

With `O=[N+]([O-])c1cccc2ccccc12` the “96 h LC50 (-log10 mol/L)” value (Pimephales promelas) was 4.53 and the “48 h IGC50 (-log10 mol/L)” value (Tetrahymena pyriformis) was 4.

`CCCCCCCCCC(C)=O` was tested, and the “96 h LC50 (-log10 mol/L)” value (Pimephales promelas) was 5.05 and the “48 h IGC50 (-log10 mol/L)” value (Tetrahymena pyriformis) was 4.54.

In the case of `OCCCCl`, the “96 h LC50 (-log10 mol/L)” value (Pimephales promelas) is reported as 2.07 and the “48 h IGC50 (-log10 mol/L)” value (Tetrahymena pyriformis) is reported as 1.6.

In the case of `CCCC=O`, the “96 h LC50 (-log10 mol/L)” value (Pimephales promelas) is reported as 3.65 and the “48 h IGC50 (-log10 mol/L)” value (Tetrahymena pyriformis) is reported as 2.62.

In the case of `c1ccc2cnncc2c1`, the “96 h LC50 (-log10 mol/L)” value (Pimephales promelas) is reported as 3.11 and the “48 h IGC50 (-log10 mol/L)” value (Tetrahymena pyriformis) is reported as 2.66.

In the case of `C=CCN=C=S`, the “96 h LC50 (-log10 mol/L)” value (Pimephales promelas) is reported as 6.06 and the “48 h IGC50 (-log10 mol/L)” value (Tetrahymena pyriformis) is reported as 5.06.

For `CCCCOC(C)=O`, the “96 h LC50 (-log10 mol/L)” value (Pimephales promelas) was 3.81 and the “48 h IGC50 (-log10 mol/L)” value (Tetrahymena pyriformis) was 2.51.

`O=Cc1ccc(Cl)cc1` was tested, and the “96 h LC50 (-log10 mol/L)” value (Pimephales promelas) was 4.8 and the “48 h IGC50 (-log10 mol/L)” value (Tetrahymena pyriformis) was 3.4.

`C=C(C)C(=O)OCCO` was tested, and the “96 h LC50 (-log10 mol/L)” value (Pimephales promelas) was 2.76 and the “48 h IGC50 (-log10 mol/L)” value (Tetrahymena pyriformis) was 1.92.

With `CC(C)(C)c1cc(C(C)(C)C)c(O)c(C(C)(C)C)c1` the “96 h LC50 (-log10 mol/L)” value (Pimephales promelas) was 6.63 and the “48 h IGC50 (-log10 mol/L)” value (Tetrahymena pyriformis) was 3.36.

In the case of `Cc1ccc([N+](=O)[O-])c(O)c1`, the “96 h LC50 (-log10 mol/L)” value (Pimephales promelas) is reported as 3.51 and the “48 h IGC50 (-log10 mol/L)” value (Tetrahymena pyriformis) is reported as 3.59.

For `CCOc1ccc(C=O)cc1`, the “96 h LC50 (-log10 mol/L)” value (Pimephales promelas) was 3.74 and the “48 h IGC50 (-log10 mol/L)” value (Tetrahymena pyriformis) was 3.07.

With `CCC(C)N` (configuration not stated) the “96 h LC50 (-log10 mol/L)” value (Pimephales promelas) was 2.42 and the “48 h IGC50 (-log10 mol/L)” value (Tetrahymena pyriformis) was 2.33.

For `CC(C)=NO`, the “96 h LC50 (-log10 mol/L)” value (Pimephales promelas) was 2.12 and the “48 h IGC50 (-log10 mol/L)” value (Tetrahymena pyriformis) was 1.75.

With `NC(=O)c1ccccc1O` the “96 h LC50 (-log10 mol/L)” value (Pimephales promelas) was 3.13 and the “48 h IGC50 (-log10 mol/L)” value (Tetrahymena pyriformis) was 2.76.

In the case of `Oc1ccc(Cl)cc1O`, the “96 h LC50 (-log10 mol/L)” value (Pimephales promelas) is reported as 4.96 and the “48 h IGC50 (-log10 mol/L)” value (Tetrahymena pyriformis) is reported as 4.06.

For `N#CCC#N`, the “96 h LC50 (-log10 mol/L)” value (Pimephales promelas) was 5.07 and the “48 h IGC50 (-log10 mol/L)” value (Tetrahymena pyriformis) was 3.22.

For `C=COC(C)=O`, the “96 h LC50 (-log10 mol/L)” value (Pimephales promelas) was 3.57 and the “48 h IGC50 (-log10 mol/L)” value (Tetrahymena pyriformis) was 2.14.

For `N#Cc1cccc([N+](=O)[O-])c1`, the “96 h LC50 (-log10 mol/L)” value (Pimephales promelas) was 3.39 and the “48 h IGC50 (-log10 mol/L)” value (Tetrahymena pyriformis) was 3.45.

With `CC=NO` the “96 h LC50 (-log10 mol/L)” value (Pimephales promelas) was 2.89 and the “48 h IGC50 (-log10 mol/L)” value (Tetrahymena pyriformis) was 1.39.

In the case of `NC(=O)c1ccccc1`, the “96 h LC50 (-log10 mol/L)” value (Pimephales promelas) is reported as 2.26 and the “48 h IGC50 (-log10 mol/L)” value (Tetrahymena pyriformis) is reported as 2.09.

For `CC(C)CC=O`, the “96 h LC50 (-log10 mol/L)” value (Pimephales promelas) was 4.42 and the “48 h IGC50 (-log10 mol/L)” value (Tetrahymena pyriformis) was 2.67.

With `C=CC(=O)OCCO` the “96 h LC50 (-log10 mol/L)” value (Pimephales promelas) was 4.38 and the “48 h IGC50 (-log10 mol/L)” value (Tetrahymena pyriformis) was 3.69.

With `CCCCCC(=O)OCC` the “96 h LC50 (-log10 mol/L)” value (Pimephales promelas) was 4.21 and the “48 h IGC50 (-log10 mol/L)” value (Tetrahymena pyriformis) was 3.06.

In the case of `c1ccc2ncccc2c1`, the “96 h LC50 (-log10 mol/L)” value (Pimephales promelas) is reported as 3.45 and the “48 h IGC50 (-log10 mol/L)” value (Tetrahymena pyriformis) is reported as 3.09.

For `CCCCCCCCc1ccc(N)cc1`, the “96 h LC50 (-log10 mol/L)” value (Pimephales promelas) was 6.23 and the “48 h IGC50 (-log10 mol/L)” value (Tetrahymena pyriformis) was 5.43.

`Brc1ccc(Br)cc1` was tested, and the “96 h LC50 (-log10 mol/L)” value (Pimephales promelas) was 5.28 and the “48 h IGC50 (-log10 mol/L)” value (Tetrahymena pyriformis) was 3.68.

With `Clc1nc(Cl)c(Cl)c(Cl)c1Cl` the “96 h LC50 (-log10 mol/L)” value (Pimephales promelas) was 5.73 and the “48 h IGC50 (-log10 mol/L)” value (Tetrahymena pyriformis) was 4.71.

With `CC(=O)C(C)C` the “96 h LC50 (-log10 mol/L)” value (Pimephales promelas) was 2 and the “48 h IGC50 (-log10 mol/L)” value (Tetrahymena pyriformis) was 1.83.

`C=CCOC(=O)C(=C)C` was tested, and the “96 h LC50 (-log10 mol/L)” value (Pimephales promelas) was 5.11 and the “48 h IGC50 (-log10 mol/L)” value (Tetrahymena pyriformis) was 2.32.

With `Cc1ccc(C)o1` the “96 h LC50 (-log10 mol/L)” value (Pimephales promelas) was 3.13 and the “48 h IGC50 (-log10 mol/L)” value (Tetrahymena pyriformis) was 2.52.

In the case of `CC(=O)c1ccncc1`, the “96 h LC50 (-log10 mol/L)” value (Pimephales promelas) is reported as 2.86 and the “48 h IGC50 (-log10 mol/L)” value (Tetrahymena pyriformis) is reported as 2.13.

In the case of `Cc1ccccn1`, the “96 h LC50 (-log10 mol/L)” value (Pimephales promelas) is reported as 2.02 and the “48 h IGC50 (-log10 mol/L)” value (Tetrahymena pyriformis) is reported as 1.99.

With `CCc1ccccn1` the “96 h LC50 (-log10 mol/L)” value (Pimephales promelas) was 2.41 and the “48 h IGC50 (-log10 mol/L)” value (Tetrahymena pyriformis) was 2.13.

`CCCOC(C)=O` was tested, and the “96 h LC50 (-log10 mol/L)” value (Pimephales promelas) was 3.23 and the “48 h IGC50 (-log10 mol/L)” value (Tetrahymena pyriformis) was 1.76.

`ClC(Cl)(Cl)Cl` was tested, and the “96 h LC50 (-log10 mol/L)” value (Pimephales promelas) was 3.57 and the “48 h IGC50 (-log10 mol/L)” value (Tetrahymena pyriformis) was 2.98.

In the case of `Nc1ccccc1`, the “96 h LC50 (-log10 mol/L)” value (Pimephales promelas) is reported as 2.99 and the “48 h IGC50 (-log10 mol/L)” value (Tetrahymena pyriformis) is reported as 2.77.

`Cc1ccc(N=C=O)cc1N=C=O` was tested, and the “96 h LC50 (-log10 mol/L)” value (Pimephales promelas) was 3.02.
